The source of these data is paper PMC10704437, “Sterol-activated amyloid beta fibril formation” (The Journal of Biological Chemistry, 2023).

One data set addresses T1, Aβ42 monomer (Homo sapiens, UniProt P05067).
T1 construct: Small red spheres mark the Aβ42 peptide C-terminal residue, A42; purchased Sigma-Aldrich Corp
In words: Sterol binding to Aβ42, equilibrium DHE fluorescence titrations. The method, then:
CH ([27]) and CS ([28]) increase the rate of Aβ aggregation and CH is thought to stabilize fibrils ([29]); yet, the affinities of CH and its metabolites for the Aβ peptide monomer have not been determined. Here, CH and CS affinities for the Aβ42 monomer are established using dehydroergosterol (DHE)—a fluorescent CH analog ([30]) used as a competitive probe to determine CH and CS affinities. Aβ42 monomers were prepared as previously described ([31]) (see Methods). […] Under this condition, Aβ42 essentially quantitatively binds DHE until its concentration exceeds that of DHE, which results in a breakpoint in the titration curve that yields the stoichiometry. The arrow seen descending from the breakpoint indicates a stoichiometry of 1:1, which agrees well with the ∼1:1 CH-metabolite:Aβ stoichiometry estimated from analysis of senile plaques micro-dissected from AD-patient brain tissue ([15]).
Figure 1 Sterol binding to Aβ42at equilibrium.A, DHE affinity for monomeric Aβ4_2. […] Binding was detected via the binding-induced 4.4 (±0.2)-fold increase in DHE fluorescence (λex = 325 nm, λem= 375 nm). Fluorescence intensity, I, is plotted relative to the intensity at zero titrant, I0. Titrations were performed independently in triplicate and the line passing through the data is the least-squares fit to a single-binding-site model. B, Aβ42:DHE stoichiometry. […] C. DHE fluorescence (λex = 325 nm, λem = 375 nm) is plotted versus [Aβ42]/[DHE]. The line descending from the titration breakpoint indicates a stoichiometry of 1:1. C and D, CH and CS affinities. Affinities were determined by competitive binding versus DHE. […] C, was titrated with CH (5.0–500 nM, 0.05–5 × Kd) or CS (5.0–500 nM, 0.15–[…] × Kd). Binding was monitored via the decrease in DHE fluorescence (λex = 325, λem = 375) caused by DHE displacement from Aβ42. Controls ensured that <2.0% of Aβ42 oligomerized during the measurement. Titrations were performed in triplicate and averaged. The solid lines through the data represent least-squares fits to a competitive single-binding-site model. C and D, insets highlight the behavior of the titration over ligand concentrations that span their reported CMCs (indicated by arrows). […]
DHE/Aβ42 binding interactions were monitored via the binding-induced 4.4-fold change in DHE fluorescence (λex = 325 nm, λem= 375 nm). […]
The affinities of CH and CS for Aβ42 were determined in competitive binding studies versus DHE. Binding was detected via the fluorescence decrease (λex= 325 nm, λem = 375 nm) caused by DHE displacement. […] Imax = (fraction DHE-bound to peptide at zero competitive ligands)/4.4 — the fold fluorescence change associated with DHE dissociation, see Figure 1A.

A further data set concerns the target T2, Aβ42 (Homo sapiens, UniProt P05067).
T2 construct: Small red spheres mark the Aβ42 peptide C-terminal residue, A42; purchased Sigma-Aldrich Corp
In words: Sterol binding to Aβ42, pre-steady-state stopped-flow fluorescence. The conditions noted are these: for kon: calculated by dividing koff by Kd; for koff: determined in DHE displacement studies, stopped-flow, 25 °C. The method, then: To establish the rates at which Aβ42•ligand complexes form and dissociate, the rate constants governing the binding reactions were determined. DHE binding was monitored in real time using a stopped-flow fluorimeter via binding-induced changes in DHE fluorescence. The reactions are pseudo first order in [ligand] and kobs was obtained by least-squares fitting progress curves to a single-exponential equation ([44], [45]). kobs values were determined (in triplicate) at a series of Aβ42 concentrations and the averaged values are plotted versus [Aβ42] in Figure 2B. kon and koff are given by the slope and intercept of the kobs-versus-[Aβ42] plot obtained by linear least-square fitting ([44], [45]). […] The rate constants are compiled in Table 1.
Figure 2 Sterol binding to Aβ42—pre-steady state studies.A, DHE binding. Reactions were monitored via binding induced changes in DHE fluorescence using a stopped-flow fluorimeter (λex = 325, λem > 400 nm). Fluorescence intensity, I, is reported relative to the intensity in the absence of ligand, Io. […] C was rapidly mixed (1:1, v/v) with a solution identical except that Aβ42 was replaced by DHE (40 nM, 2.7 × Kd). The bindingreaction curve shown is the average of five independent progress curves. The averaged curve was a least-squares fit to a single-exponential equation and the resulting best fit (indicated by the red line) yielded kobs. B, DHE kon and koff. kobs values obtained as in Panel A were determined in triplicate at varying Aβ42 concentrations and the averaged values are shown plotted versus [Aβ42]. kon and koff are given by the slope and intercept of a linear least-squares fit of the kobsversus [Aβ42] plot. C and D, CH and CS displacement reactions.
Pre-steady-state binding of sterols to Aβ42 was monitored via the binding-induced change in DHE fluorescence (λex = 325, λem > 400 nm) using an Applied Photophysics SX20 stopped-flow fluorimeter.
Three progress curves (each an average of five independently obtained curves) were collected at five separate Aꞵ42 concentrations. The observed rate constant (kobs) at a given [Aβ42] was obtained by fitting the average of the three curves to a single-exponential equation using Pro-K software ([75]). kon and koff were obtained from the slopes and intercepts predicted by linear least-squares analysis of kobs versus [Aβ42] plots.
C. […] Progress curves were determined in triplicate and koff was obtained by least-squares fitting the averaged curves to a single-exponential equation using Pro-K.

Details of data set [1]: method as in PMID 4525165. To be noted: reported in 1973; cited from earlier work.

Read-outs that look alike come from different tables or passages of the source.

T2 sequence (P05067 672-713 limits assumed): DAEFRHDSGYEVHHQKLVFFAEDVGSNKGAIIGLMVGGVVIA
T1 sequence (P05067 672-713 limits assumed): as above

The kon is the rate constant with which the complex forms. A word on the koff: it is the first-order rate constant of dissociation. High values mean fast dissociation, low ones slow dissociation. On to `CC(C)CCC[C@@H](C)[C@H]1CC[C@H]2[C@@H]3CC=C4C[C@@H](O)CC[C@]4(C)[C@H]3CC[C@]12C` [CH, cholesterol], for which the Kd at Aβ42 monomer (determined in DHE competition studies, DHE 10 nM, Aβ42 20 nM, K2PO4 50 mM, pH 7.4, 25 °C, read-out: Kd) came out at 120 nM. At Aβ42, the kon is 2.1e+07 M⁻¹ s⁻¹ and the koff is 2.5 s⁻¹. Further, the Kd at Aβ42 (ratio of rate constants, read-out: koff/kon) worked out at 120 nM. For the same compound, the “critical micelle concentration (CMC)” value in data set [1] is 25 to 40 nM.
`CC(C)CCC[C@@H](C)[C@H]1CC[C@H]2[C@@H]3CC=C4C[C@@H](OS(=O)(=O)O)CC[C@]4(C)[C@H]3CC[C@]12C` [CS, cholesterol 3-sulfate] showed a Kd on Aβ42 monomer of 36 nM. For the same compound, the “enhanced affinity of CS over CH for Aβ42” value on Aβ42 monomer (ratio of Kd values) worked out at 3.4 fold. On Aβ42, the Kd worked out at 36 nM, the kon is 2.4e+07 M⁻¹ s⁻¹ and the koff was 0.88 s⁻¹.
